Source: patent publication US20230339915A1 (Vertex Pharmaceuticals Incorporated, priority 2020, published 2023)

Assays:
[1] = molecular target: NL20 human bronchial epithelial cells expressing human Z-AAT (Homo sapiens (Human), UniProt P01009, E366K); test: AAT Function Assay (MSD Assay NL20-SI Cell Line); type: cell-based; details: functionally active AAT (AAT-hNE complex, MSD) in supernatant of NL20 cells expressing human Z-AAT; read-out: NL20 Functional EC50
Outline: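 Secreted active Z-AAT was measured by MSD electrochemiluminescence: supernatants (45-fold total dilution) were incubated with human neutrophil elastase to form AAT–elastase complexes, captured by goat anti-AAT and detected with labelled anti-elastase. Cells were doxycycline-induced (0.1 μM) NL20 bronchial cells treated with compound overnight; M-AAT standard curve.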

[2] = molecular target: purified Z-AAT protein from human plasma (Homo sapiens (Human), UniProt P01009, E366K); test: Biochemical Assay (Z-AAT Elastase Activity Assay); details: purified Z-AAT pre-incubated with compound 1 hour, then human neutrophil elastase and fluorescent substrate
Outline: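 Purified plasma Z-AAT (20 nM) preincubated with compounds 1 h at room temperature, then 3 nM human neutrophil elastase added in PBS + 0.01% BRIJ35 for 30 min to form suicide complex. Residual elastase activity read immediately by fluorescence after adding 300 μM MeOSuc-AAPV-AMC substrate solution.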

Sequence of purified Z-AAT protein from human plasma (P01009 25-418 E366K limits assumed): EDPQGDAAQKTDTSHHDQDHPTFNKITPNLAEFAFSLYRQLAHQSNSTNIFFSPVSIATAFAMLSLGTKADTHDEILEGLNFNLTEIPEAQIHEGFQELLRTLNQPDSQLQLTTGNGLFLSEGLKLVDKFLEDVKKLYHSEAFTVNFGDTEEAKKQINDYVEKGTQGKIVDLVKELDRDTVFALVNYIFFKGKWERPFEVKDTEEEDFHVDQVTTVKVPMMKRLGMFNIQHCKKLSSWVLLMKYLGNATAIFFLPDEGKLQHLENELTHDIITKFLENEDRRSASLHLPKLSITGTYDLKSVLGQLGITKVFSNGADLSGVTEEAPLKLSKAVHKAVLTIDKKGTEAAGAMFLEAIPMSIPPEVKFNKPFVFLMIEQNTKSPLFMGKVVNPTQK
Sequence of NL20 human bronchial epithelial cells expressing human Z-AAT (P01009 25-418 E366K limits assumed): as above

| EC50 [1] [nM] | IC50 [2] [nM] | SMILES |
| --- | --- | --- |
| > 2000 | > 30000 | COCC(C)(C)c1c(C2CC(C(=O)O)C2)c2cc(O)ccc2n1-c1ccc(F)c(C)c1 (centres unmarked) [Compound 72] |
| > 2000 | > 30000 | COCC(C)(C)c1c([C@H]2C[C@H](C(=O)O)C2)c2cc(O)ccc2n1-c1ccc(F)c(C)c1 [Compound 73] |
| > 2000 | > 5000 | CC(C)c1c([C@H]2C[C@@H](C(=O)O)C2)c2cc(O)ccc2n1-c1ccc(F)c(Cl)c1 [Compound 78] |
| > 2000 | > 30000 | Cc1cc(-n2c([C@@H]3CCOC3)c([C@H]3C[C@H](C(=O)O)C3)c3cc(O)ccc32)ccc1F [Compound 84] |
| > 2000 | > 30000 | Cc1cc(-n2c([C@@H]3CCOC3)c([C@H]3C[C@@H](C(=O)O)C3)c3cc(O)ccc32)ccc1F [Compound 85] |
| > 2000 | > 30000 | Cc1cc(-n2c([C@H]3CCOC3)c([C@H]3C[C@H](C(=O)O)C3)c3cc(O)ccc32)ccc1F [Compound 86] |
| > 2000 | > 30000 | Cc1cc(-n2c([C@H]3CCOC3)c([C@H]3C[C@@H](C(=O)O)C3)c3cc(O)ccc32)ccc1F [Compound 87] |
| > 2000 | > 30000 | Cc1cc(-n2c(C3CC3)c([C@H]3C[C@H](C(=O)O)C3)c3cc(O)ccc32)ccc1F [Compound 93] |

Further lines, the compound ahead of its results:

| SMILES | EC50 [1] [nM] | IC50 [2] [nM] |
| --- | --- | --- |
| Cc1cc(-n2c(C(C)C)c([C@H]3C[C@H](C(=O)O)C3)c3cc(O)c(F)cc32)ccc1F [Compound 68] | 500 to 2000 | > 5000 |
| Cc1cc(-n2c(C(C)C)c([C@H]3C[C@@H](C(=O)O)C3)c3cc(O)c(F)cc32)ccc1F [Compound 69] | > 2000 | > 5000 |
| CC(C)c1c(CCC(C)(C)C(=O)O)c2cc(O)ccc2n1-c1ccc(F)cc1 [Compound 70] | 500 to 2000 | > 30000 |
| CC(C)c1c(CC2(C(=O)O)CC2)c2cc(O)ccc2n1-c1ccc(F)cc1 [Compound 71] | 500 to 2000 | > 5000 |
| CC(C)c1c([C@H]2C[C@](C)(C(=O)O)C2)c2cc(O)ccc2n1-c1ccc(F)c(Cl)c1 [Compound 75] | 500 to 2000 | > 5000 |
| CC(C)c1c([C@H]2C[C@@](C)(C(=O)O)C2)c2cc(O)ccc2n1-c1ccc(F)c(Cl)c1 [Compound 76] | > 2000 | > 30000 |
| CC(C)c1c([C@H]2C[C@H](C(=O)O)C2)c2cc(O)ccc2n1-c1ccc(F)c(Cl)c1 [Compound 77] | 500 to 2000 | > 5000 |
| CC(C)c1c(C2CC3(CC(C(=O)O)C3)C2)c2cc(O)ccc2n1-c1ccc(F)cc1 (centres unmarked) [Compound 80] | 500 to 2000 | < 2000 |
| COCC(C)(C)c1c(CC2(C(=O)O)CC2)c2cc(O)ccc2n1-c1ccc(F)c(C)c1 [Compound 81] | 500 to 2000 | > 30000 |
| Cc1cc(-n2c(C(C)C)c(C3COC(C(=O)O)C3)c3cc(O)ccc32)ccc1F (centres unmarked) [Compound 88] | > 2000 | > 30000 |
| Cc1cc(-n2c(C(C)C)c([C@H]3C[C@H](C(=O)O)C3)c3c(F)c(O)ccc32)ccc1F [Compound 89] | 500 to 2000 | 2000 to 5000 |
| Cc1cc(-n2c(C(C)C)c([C@H]3C[C@@H](C(=O)O)C3)c3c(F)c(O)ccc32)ccc1F [Compound 90] | 500 to 2000 | > 5000 |
| CC(C)c1c([C@H]2C[C@@H](C(=O)O)C2)c2cc(O)ccc2n1-c1ccc(F)cc1 [Compound 91] | > 2000 | > 30000 |
| CC(C)c1c(C(C)CCC(=O)O)c2cc(O)ccc2n1-c1ccc(F)cc1 (centres unmarked) [Compound 92] | > 2000 | > 5000 |
| Cc1cc(-n2c(C(C)C)c([C@H]3C[C@@](C)(C(=O)O)C3)c3cc(O)ccc32)ccc1F [Compound 94] | > 2000 | > 30000 |
| Cc1cc(-n2c(C(C)C)c([C@H]3C[C@](C)(C(=O)O)C3)c3cc(O)ccc32)ccc1F [Compound 95] | < 500 | > 5000 |
| Cc1cc(-n2c(C(C)C)c(CCCC(=O)O)c3cc(O)ccc32)ccc1F [Compound 96] | 500 to 2000 | > 30000 |
